Experimental data from ChEMBL document CHEMBL5233249, “Recent advancements in the development of heterocyclic anti-inflammatory agents” (Eur J Med Chem, 2020).
pIC50: −log10 of the molar value.

Tests used:
Rattus norvegicus [1] = experiment: Anti-inflammatory activity in Carageenan-induced foot paw edema in Sprague-Dawley rat at 50 mg/kg assessed as reduction in paw edema volume relative to control; assay type: functional; parameters: scale not given: the % may be the effect or the level left
[2] = biological target: T1, Prostaglandin G/H synthase 1 (Ovis aries, UniProt P05979); experiment: Inhibition of ovine COX-1 by EIA method
T1 sequence (P05979 whole entry): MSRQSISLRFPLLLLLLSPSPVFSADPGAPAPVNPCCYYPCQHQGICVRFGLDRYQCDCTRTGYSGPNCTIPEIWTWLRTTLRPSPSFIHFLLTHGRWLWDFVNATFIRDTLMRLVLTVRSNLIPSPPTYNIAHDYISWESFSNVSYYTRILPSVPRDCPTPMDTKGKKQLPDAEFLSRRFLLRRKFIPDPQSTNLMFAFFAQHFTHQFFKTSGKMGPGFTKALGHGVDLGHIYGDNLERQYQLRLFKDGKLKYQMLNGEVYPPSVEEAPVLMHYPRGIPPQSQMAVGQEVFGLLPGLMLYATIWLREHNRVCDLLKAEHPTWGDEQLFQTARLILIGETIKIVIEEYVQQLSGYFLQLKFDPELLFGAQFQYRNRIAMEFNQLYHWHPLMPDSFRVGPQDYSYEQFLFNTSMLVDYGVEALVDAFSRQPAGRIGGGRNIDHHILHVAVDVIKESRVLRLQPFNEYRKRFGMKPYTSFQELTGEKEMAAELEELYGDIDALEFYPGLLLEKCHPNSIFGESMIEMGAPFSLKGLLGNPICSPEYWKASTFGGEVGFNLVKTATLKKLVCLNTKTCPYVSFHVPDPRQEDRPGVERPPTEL

RAW264.7 = experiment: Anti-inflammatory activity in mouse RAW264.7 cells assessed as LPS-induced reduction in NO production measured after 24 hrs; assay type: functional, cell-based; conditions: RAW264.7, 24 h
Rattus norvegicus [3] = experiment: Anti-inflammatory activity in Carrageenan-induced paw edema in Wistar albino rat assessed as reduction in paw edema measured after 2 hr relative to control; assay type: functional; parameters: scale not given: the % may be the effect or the level left
Rattus norvegicus [4] = experiment: Anti-inflammatory activity in Carrageenan-induced paw edema in Wistar albino rat assessed as reduction in paw edema measured after 1 hr relative to control; assay type: functional; parameters: scale not given: the % may be the effect or the level left
Rattus norvegicus [5] = experiment: Anti-inflammatory activity in Carrageenan-induced paw edema in Wistar albino rat assessed as reduction in paw edema measured after 3 hr relative to control; assay type: functional; parameters: scale not given: the % may be the effect or the level left
Rattus norvegicus [6] = experiment: Anti-inflammatory activity against Carrageenan-induced paw edema in Wistar albino rat ulcerogenic activity assessed as reduction in severity index; assay type: functional
Rattus norvegicus [7] = experiment: Anti-inflammatory activity in Carrageenan-induced paw edema in Wistar rat assessed as inhibition of paw edema; assay type: functional
Rattus norvegicus [8] = experiment: Anti-inflammatory activity in Carrageenan-induced rat paw edema in Wistar rat assessed as increase in paw edema volume relative to control; assay type: functional
Rattus norvegicus [9] = experiment: Anti-inflammatory activity in Carrageenan-induced rat paw edema in Wistar rat assessed as increase in paw edema volume at 1 hr; assay type: functional
Rattus norvegicus [10] = experiment: Anti-inflammatory activity in Carrageenan-induced rat paw edema in Wistar rat assessed as increase in paw edema volume at 4 hr; assay type: functional
Rattus norvegicus [11] = experiment: Anti-inflammatory activity in Carrageenan-induced rat paw edema in Wistar rat assessed as increase in paw edema volume (reference value: 1.66 +/- 0.01); assay type: functional
Rattus norvegicus [12] = experiment: Anti-inflammatory activity in Carrageenan-induced rat paw edema in Wistar rat assessed as increase in paw edema volume at 2 hr relative to control; assay type: functional
Rattus norvegicus [13] = experiment: Anti-inflammatory activity in Carrageenan-induced rat paw edema in Wistar rat assessed as increase in paw edema volume at 2 hr; assay type: functional
Rattus norvegicus [14] = experiment: Anti-inflammatory activity in Carrageenan-induced rat paw edema in Wistar rat assessed as increase in paw edema volume at 1 hr relative to control; assay type: functional
Rattus norvegicus [15] = experiment: Anti-inflammatory activity in Carrageenan-induced rat paw edema in Wistar rat assessed as increase in paw edema volume at 4 hr relative to control; assay type: functional
[16] = biological target: Prostaglandin G/H synthase 1 (Homo sapiens, UniProt P23219); experiment: Inhibition of COX-1 (unknown origin) at 40 uM relative to control
Rattus norvegicus [17] = experiment: Anti-inflammatory activity in Carrageenan-induced paw edema in Swiss albino rat assessed as inhibition relative to control; assay type: functional
Rattus norvegicus [18] = experiment: Anti-inflammatory activity in Carrageenan-induced paw edema in PO dosed rat model at 20 mg/kg assessed as inhibition of paw edema measured after 4 hrs relative to control; assay type: functional
Rattus norvegicus [19] = experiment: Anti-inflammatory activity in Carrageenan-induced paw edema in PO dosed rat model at 10 mg/kg assessed as inhibition of paw edema measured after 4 hrs relative to control; assay type: functional
Rattus norvegicus [20] = experiment: Ulcerogenic activity in Swiss albino Wistar rat assessed as ulcer lesion score at 100 mg/kg, po; assay type: functional
Mus musculus = experiment: Anti-inflammatory activity against Carrageenan-induced paw edema in mouse model assessed as inhibition of edema at 100 mg/kg measured after 4 hrs relative to control; assay type: functional; parameters: scale not given: the % may be the effect or the level left
Rattus norvegicus [21] = experiment: Anti-inflammatory activity in Carrageenan-induced paw edema in PO dosed Swiss albino rat model at 10 mg/kg assessed as inhibition in volume of edema measured after 1 hrs relative to control; assay type: functional
Rattus norvegicus [22] = experiment: Anti-inflammatory activity in Carrageenan-induced paw edema in Wistar albino rat assessed as inhibition of edema measured after 1 hr relative to control; assay type: functional; parameters: scale not given: the % may be the effect or the level left
Rattus norvegicus [23] = experiment: Anti-inflammatory activity in Carrageenan-induced paw edema in Wistar albino rat assessed as inhibition of edema measured after 5 hr relative to control; assay type: functional; parameters: scale not given: the % may be the effect or the level left
Rattus norvegicus [24] = experiment: Anti-inflammatory activity in Carrageenan-induced paw edema in Wistar albino rat assessed as inhibition of edema measured after 3 hr relative to control; assay type: functional; parameters: scale not given: the % may be the effect or the level left
[25] = biological target: T2, Prostaglandin G/H synthase 2 (Homo sapiens, UniProt P35354); experiment: Inhibition of human COX-2 assessed as by fluorescence based microplate reader assay
T2 sequence (P35354 whole entry): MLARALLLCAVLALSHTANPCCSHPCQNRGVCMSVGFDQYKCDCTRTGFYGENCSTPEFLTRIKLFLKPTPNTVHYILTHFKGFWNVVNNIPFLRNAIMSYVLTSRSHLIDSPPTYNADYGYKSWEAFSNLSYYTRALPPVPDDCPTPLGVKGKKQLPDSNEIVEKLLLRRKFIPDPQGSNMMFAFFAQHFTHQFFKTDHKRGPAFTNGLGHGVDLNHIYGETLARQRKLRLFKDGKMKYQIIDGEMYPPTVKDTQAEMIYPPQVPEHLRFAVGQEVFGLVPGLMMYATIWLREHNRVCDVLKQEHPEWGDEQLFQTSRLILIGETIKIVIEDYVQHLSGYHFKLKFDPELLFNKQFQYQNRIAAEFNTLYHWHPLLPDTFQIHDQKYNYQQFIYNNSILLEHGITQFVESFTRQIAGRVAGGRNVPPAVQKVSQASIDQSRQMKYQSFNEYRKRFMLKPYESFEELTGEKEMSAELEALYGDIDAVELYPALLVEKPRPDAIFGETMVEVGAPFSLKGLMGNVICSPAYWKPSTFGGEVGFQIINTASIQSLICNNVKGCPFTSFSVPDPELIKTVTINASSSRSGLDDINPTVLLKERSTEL

[26] = Anti-inflammatory activity assessed as protein denaturation using bovine serum albumin relative to control; assay type: functional
[27] = Inhibition of MAPK p38 (unknown origin); parameters: species or system Homo sapiens
Rattus norvegicus [28] = experiment: Anti-inflammatory activity in Carrageenan-induced rat paw edema in Wistar rat assessed as reduction in inhibition of edema measured after 4 hrs relative to control; assay type: functional; parameters: scale not given: the % may be the effect or the level left

Chain of Prostaglandin G/H synthase 1 (Homo sapiens, UniProt P23219) (P23219 whole entry): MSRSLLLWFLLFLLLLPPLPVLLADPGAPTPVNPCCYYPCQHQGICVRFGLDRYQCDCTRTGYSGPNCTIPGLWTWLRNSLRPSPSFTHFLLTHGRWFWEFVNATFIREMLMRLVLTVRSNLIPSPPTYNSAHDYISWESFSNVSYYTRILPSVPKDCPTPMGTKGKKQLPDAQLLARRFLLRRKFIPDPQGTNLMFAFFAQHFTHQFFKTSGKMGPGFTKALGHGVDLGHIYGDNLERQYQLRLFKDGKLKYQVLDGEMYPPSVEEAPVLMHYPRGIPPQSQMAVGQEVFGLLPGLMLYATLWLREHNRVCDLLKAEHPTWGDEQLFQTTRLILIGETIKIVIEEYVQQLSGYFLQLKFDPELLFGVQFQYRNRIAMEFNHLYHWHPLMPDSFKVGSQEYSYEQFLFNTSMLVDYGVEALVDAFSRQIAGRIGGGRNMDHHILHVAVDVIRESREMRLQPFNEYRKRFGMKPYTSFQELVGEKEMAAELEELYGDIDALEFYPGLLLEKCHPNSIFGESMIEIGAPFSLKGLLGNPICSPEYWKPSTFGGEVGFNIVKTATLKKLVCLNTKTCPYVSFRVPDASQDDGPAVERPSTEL

CC1=C(c2ccc(C(=O)NNC(=S)Nc3ccccc3)cn2)SC2Nc3ccccc3N12 (stereo not drawn)
Activity (Rattus norvegicus [1]): 79.5% | pIC50 [2]: 7.36

COc1ccc(C(=O)c2nc3ccccc3cc2-c2cc(OC)c(OC)c(OC)c2)cc1
pIC50 (RAW264.7): 5.17

Clc1ccccc1-c1nnc(Cn2c(CN3CCOCC3)nc3ccccc32)o1
Activity (Rattus norvegicus [3]): 67.12% | Activity (Rattus norvegicus [4]): 38.54% | Activity (Rattus norvegicus [5]): 74.17% | Activity (Rattus norvegicus [6]): 0.28 mm

CCCOC(=O)c1nc2c(cnn2-c2ccccc2)c(=O)[nH]1
ED50 (Rattus norvegicus [7]): 8.3 mg/kg | inhibition (INH) (Rattus norvegicus [8]): 40% | Activity (Rattus norvegicus [9]): 1.66 mL | Activity (Rattus norvegicus [10]): 2.11 mL | Activity (Rattus norvegicus [11]): 0.9 mL | inhibition (INH) (Rattus norvegicus [12]): 51% | pIC50 [2]: 4.71 | Activity (Rattus norvegicus [13]): 1.8 mL | inhibition (INH) (Rattus norvegicus [14]): 40% | inhibition (INH) (Rattus norvegicus [15]): 55% | inhibition [16]: 86% | inhibition (INH) (Rattus norvegicus [17]): 36%

Cc1nn(-c2ccccc2)c2c1C(c1ccc([N+](=O)[O-])cc1)N1C=CC=NC1=N2 (stereo not drawn)
inhibition in vivo at 20 mg/kg (Rattus norvegicus [18]): 80% | inhibition in vivo at 10 mg/kg (Rattus norvegicus [19]): 73%

O=C(NCn1c(-c2ccccc2Cl)nc2ccccc21)c1ccc(Cl)cc1
Activity (Rattus norvegicus [20]): 13.53 mm | Activity (Mus musculus): 62.5%

Cc1c(-c2ccccc2)n(C(=O)c2ccccc2)c2ccc(S(C)(=O)=O)cc12
inhibition in vivo at 10 mg/kg (Rattus norvegicus [21]): 73.1%

CCOc1cc(C)nn1C(=O)CNc1ncnc2c1c(C)nn2-c1ccccc1
Activity (Rattus norvegicus [22]): 82% | Activity (Rattus norvegicus [23]): 90% | Activity (Rattus norvegicus [24]): 94% | pIC50 [25]: 6.80

Cc1nn(-c2ccccc2)c2c1C(c1ccccc1Cl)N1C=CC=NC1=N2 (stereo not drawn)
inhibition in vivo at 20 mg/kg (Rattus norvegicus [18]): 86% | inhibition in vivo at 10 mg/kg (Rattus norvegicus [19]): 73%

COc1ccc(NC(=O)c2ccc(Nc3ncnc4c3cnn4-c3ccccc3)cc2)cc1
Activity [26]: 80.2% | pIC50 [27]: 7.42 | Activity (Rattus norvegicus [28]): 76.35%
